Results: PMC10127203, “Trapoxin A Analogue as a Selective Nanomolar Inhibitor of HDAC11” (ACS Chemical Biology, 2023)

Legend:
SIRT2 = target: T1, SIRT2 (Homo sapiens, UniProt Q8IXJ6); assay: SIRT2 enzyme activity assay (Ac-H3K9, NAD+, HPLC)
T1 sequence (Q8IXJ6 1-389): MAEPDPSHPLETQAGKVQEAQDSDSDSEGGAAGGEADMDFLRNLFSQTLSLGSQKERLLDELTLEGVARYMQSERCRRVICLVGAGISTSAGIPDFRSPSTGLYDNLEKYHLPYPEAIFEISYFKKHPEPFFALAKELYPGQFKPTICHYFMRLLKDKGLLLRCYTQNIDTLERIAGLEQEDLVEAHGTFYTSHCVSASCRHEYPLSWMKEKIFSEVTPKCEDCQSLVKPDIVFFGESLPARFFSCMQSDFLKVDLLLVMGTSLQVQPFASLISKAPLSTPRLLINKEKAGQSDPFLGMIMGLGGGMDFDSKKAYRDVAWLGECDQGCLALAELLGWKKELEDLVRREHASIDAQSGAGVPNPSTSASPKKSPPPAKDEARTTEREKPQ

HDAC1 = HDAC1 (Homo sapiens, UniProt Q13547); assay: HDAC1 enzyme activity assay (Ac-H3K9, HPLC); conditions: read-out: HDAC1, % inhibition
HDAC1, sequence (Q13547 whole entry): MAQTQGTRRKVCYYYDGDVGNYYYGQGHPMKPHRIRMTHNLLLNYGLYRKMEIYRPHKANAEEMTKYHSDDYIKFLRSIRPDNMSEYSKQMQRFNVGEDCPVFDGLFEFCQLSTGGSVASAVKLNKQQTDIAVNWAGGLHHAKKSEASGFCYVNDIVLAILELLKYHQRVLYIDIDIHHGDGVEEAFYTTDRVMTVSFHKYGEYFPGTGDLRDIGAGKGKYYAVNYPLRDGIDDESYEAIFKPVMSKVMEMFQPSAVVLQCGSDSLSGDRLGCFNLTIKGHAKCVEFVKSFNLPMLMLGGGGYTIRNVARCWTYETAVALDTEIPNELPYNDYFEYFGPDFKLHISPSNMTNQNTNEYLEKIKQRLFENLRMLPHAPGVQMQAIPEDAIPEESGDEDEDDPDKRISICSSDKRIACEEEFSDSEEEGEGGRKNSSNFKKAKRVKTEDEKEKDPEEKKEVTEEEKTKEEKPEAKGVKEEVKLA

HDAC4 = HDAC4 (Homo sapiens, UniProt P56524); assay: HDAC4 enzyme activity assay (trifluoroacetyl-H3K9, HPLC); conditions: read-out: HDAC4, % inhibition
HDAC4, sequence (P56524 whole entry): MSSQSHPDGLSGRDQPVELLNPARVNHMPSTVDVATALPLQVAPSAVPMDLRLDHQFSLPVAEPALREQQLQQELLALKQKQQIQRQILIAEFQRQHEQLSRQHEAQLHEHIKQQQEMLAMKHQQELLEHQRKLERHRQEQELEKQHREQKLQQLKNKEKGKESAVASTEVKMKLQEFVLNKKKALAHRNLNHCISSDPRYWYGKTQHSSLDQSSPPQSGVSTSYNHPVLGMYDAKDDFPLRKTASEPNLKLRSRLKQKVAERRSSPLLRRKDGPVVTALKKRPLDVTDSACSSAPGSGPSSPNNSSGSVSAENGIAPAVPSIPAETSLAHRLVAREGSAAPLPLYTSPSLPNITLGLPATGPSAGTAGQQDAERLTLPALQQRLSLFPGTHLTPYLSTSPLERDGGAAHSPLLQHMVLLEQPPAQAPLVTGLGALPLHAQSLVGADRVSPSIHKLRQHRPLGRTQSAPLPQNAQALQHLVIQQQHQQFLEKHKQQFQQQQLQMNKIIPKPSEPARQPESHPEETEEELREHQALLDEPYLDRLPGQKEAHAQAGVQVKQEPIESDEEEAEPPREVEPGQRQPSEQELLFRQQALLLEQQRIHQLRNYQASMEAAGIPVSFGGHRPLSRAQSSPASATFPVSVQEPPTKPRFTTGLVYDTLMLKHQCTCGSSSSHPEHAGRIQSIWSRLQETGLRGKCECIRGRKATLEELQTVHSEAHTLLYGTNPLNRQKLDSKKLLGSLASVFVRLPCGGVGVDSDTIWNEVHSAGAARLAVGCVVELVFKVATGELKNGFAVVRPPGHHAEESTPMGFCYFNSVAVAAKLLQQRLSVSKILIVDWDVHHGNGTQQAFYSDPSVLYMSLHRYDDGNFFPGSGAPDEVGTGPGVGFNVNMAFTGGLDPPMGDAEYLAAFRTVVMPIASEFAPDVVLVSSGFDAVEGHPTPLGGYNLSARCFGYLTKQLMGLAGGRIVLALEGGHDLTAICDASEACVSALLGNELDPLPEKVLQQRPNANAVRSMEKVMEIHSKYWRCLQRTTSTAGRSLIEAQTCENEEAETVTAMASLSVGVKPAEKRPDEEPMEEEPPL

HDAC6 = target: T2, HDAC6 (Homo sapiens, UniProt Q9UBN7); assay: HDAC6 enzyme activity assay (Ac-H3K9, HPLC); conditions: read-out: HDAC6, % inhibition
T2 sequence (Q9UBN7 1-1215): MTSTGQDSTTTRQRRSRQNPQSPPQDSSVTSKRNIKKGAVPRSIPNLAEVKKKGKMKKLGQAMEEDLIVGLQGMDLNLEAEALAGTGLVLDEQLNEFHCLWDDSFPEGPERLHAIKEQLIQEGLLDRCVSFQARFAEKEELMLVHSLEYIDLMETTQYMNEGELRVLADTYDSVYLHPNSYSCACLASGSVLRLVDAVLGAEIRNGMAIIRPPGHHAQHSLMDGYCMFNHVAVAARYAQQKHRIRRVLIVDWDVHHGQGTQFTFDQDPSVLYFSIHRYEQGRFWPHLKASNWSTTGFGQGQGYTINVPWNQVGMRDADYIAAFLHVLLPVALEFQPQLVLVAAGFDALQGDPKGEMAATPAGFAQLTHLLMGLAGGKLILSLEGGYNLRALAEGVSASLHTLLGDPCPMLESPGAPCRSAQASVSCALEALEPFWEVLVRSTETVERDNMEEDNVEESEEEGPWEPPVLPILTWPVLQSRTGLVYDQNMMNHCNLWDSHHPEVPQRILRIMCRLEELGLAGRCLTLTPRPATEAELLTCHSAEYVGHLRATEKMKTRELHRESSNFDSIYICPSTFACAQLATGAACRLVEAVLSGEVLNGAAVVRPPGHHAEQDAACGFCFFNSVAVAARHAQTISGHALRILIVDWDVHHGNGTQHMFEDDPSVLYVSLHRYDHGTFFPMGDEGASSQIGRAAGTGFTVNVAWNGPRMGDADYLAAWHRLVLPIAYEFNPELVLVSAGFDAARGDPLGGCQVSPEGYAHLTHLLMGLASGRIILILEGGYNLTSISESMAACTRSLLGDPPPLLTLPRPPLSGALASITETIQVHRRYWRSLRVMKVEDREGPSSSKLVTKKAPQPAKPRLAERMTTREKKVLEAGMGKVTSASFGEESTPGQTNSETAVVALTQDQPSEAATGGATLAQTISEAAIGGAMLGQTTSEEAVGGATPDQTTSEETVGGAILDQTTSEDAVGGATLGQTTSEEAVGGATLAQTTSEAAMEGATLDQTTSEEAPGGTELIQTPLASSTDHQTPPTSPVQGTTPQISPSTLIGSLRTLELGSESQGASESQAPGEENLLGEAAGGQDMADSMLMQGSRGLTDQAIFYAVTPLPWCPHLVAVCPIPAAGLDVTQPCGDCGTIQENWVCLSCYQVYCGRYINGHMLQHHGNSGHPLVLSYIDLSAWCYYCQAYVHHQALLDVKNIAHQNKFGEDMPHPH

[1] = pH 8
[2] = system: YAP1 target genes CTGF and CYR61 in A549 cells; assay: mRNA level of YAP1 and YAP1 target genes (CTGF, CYR61) by qRT-PCR in A549 cells; format: cell-based; conditions: for mRNA levels of YAP1 target genes CTGF and CYR61: 5 and 10 μM, 24 hr
Experimental: (§1) A549 cells were treated with TD034 at 5 and 10 μM for 24 hr. Western blot was used to check for YAP1 protein level. qRT-PCR was used to check for YAP1 downstream genes transcription (CTGF and CYR61). Total RNA was extracted using IBI Isolate Total Extraction Reagent Kit (IB47602). […] of RNA was reverse transcribed using OneScript Plus cDNA Synthesis Kit (ABM G236) according to the manufacturer’s protocol. Real-time PCR was performed using BlasTaq 2X qPCR MasterMix (ABM G892) on a QuantStudio 3 Real-Time PCR System. All qPCR reactions were performed in triplicates. The list of primers is included in the Supporting Information.

HDAC8 = target: T3, HDAC8 (Homo sapiens, UniProt Q9BY41); assay: HDAC8 enzyme activity assay (Ac-H3K9, HPLC); conditions: read-out: HDAC8, % inhibition
T3 sequence (Q9BY41 1-377): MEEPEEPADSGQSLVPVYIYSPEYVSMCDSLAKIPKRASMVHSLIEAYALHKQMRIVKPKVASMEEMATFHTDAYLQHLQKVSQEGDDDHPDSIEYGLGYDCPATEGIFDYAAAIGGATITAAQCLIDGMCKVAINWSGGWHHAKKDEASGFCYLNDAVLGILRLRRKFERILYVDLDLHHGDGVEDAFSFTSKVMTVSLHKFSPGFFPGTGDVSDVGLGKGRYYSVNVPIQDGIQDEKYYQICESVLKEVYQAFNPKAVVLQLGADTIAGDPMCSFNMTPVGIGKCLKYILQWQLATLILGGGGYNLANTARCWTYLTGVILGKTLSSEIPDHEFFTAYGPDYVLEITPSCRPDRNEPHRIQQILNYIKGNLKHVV

[3] = system: α-tubulin, p53, and histone H3 acetylation levels; assay: Acetylation levels of α-tubulin, p53 and histone H3 by Western blot in cells; format: cell-based; conditions: 3 h of treatment
Excerpt: . As a positive control, we used trichostatin A (TSA), a nonselective HDAC inhibitor against both class I and class IIb HDACs.[25] […]

SIRT1 = target: T4, SIRT1 (Homo sapiens, UniProt Q96EB6); assay: SIRT1 enzyme activity assay (Ac-H3K9, NAD+, HPLC); conditions: read-out: SIRT1, % inhibition
T4 sequence (Q96EB6 1-747): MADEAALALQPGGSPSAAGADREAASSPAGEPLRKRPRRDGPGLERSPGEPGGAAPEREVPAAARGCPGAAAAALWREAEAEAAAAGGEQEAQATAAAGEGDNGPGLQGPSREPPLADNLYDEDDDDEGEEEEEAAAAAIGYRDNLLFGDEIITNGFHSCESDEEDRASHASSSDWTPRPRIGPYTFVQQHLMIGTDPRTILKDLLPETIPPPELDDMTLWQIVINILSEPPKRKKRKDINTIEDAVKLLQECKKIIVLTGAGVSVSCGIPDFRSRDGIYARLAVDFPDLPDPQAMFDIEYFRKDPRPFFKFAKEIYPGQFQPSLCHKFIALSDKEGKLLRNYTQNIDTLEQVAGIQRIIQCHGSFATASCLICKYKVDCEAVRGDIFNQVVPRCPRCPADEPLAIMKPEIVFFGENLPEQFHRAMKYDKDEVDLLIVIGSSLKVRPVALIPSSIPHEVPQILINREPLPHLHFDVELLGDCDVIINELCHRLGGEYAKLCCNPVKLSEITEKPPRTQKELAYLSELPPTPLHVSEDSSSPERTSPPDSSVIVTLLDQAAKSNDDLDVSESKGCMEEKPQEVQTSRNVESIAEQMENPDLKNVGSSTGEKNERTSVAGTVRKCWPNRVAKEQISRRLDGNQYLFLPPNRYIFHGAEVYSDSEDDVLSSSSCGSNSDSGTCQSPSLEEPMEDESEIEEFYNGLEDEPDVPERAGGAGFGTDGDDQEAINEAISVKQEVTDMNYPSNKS

[4] = system: YAP1 protein level in A549 cells; assay: YAP1 protein level by Western blot in A549 cells; format: cell-based; conditions: for YAP1 protein levels: A549 cells, 5 and 10 μM, 24 hr
Experimental: as §1

HDAC11 [5] = target: T5, HDAC11 (Homo sapiens, UniProt Q96DB2); set-up: method as in PMID 31264832; conditions: cited from earlier work
T5 sequence (Q96DB2 1-347): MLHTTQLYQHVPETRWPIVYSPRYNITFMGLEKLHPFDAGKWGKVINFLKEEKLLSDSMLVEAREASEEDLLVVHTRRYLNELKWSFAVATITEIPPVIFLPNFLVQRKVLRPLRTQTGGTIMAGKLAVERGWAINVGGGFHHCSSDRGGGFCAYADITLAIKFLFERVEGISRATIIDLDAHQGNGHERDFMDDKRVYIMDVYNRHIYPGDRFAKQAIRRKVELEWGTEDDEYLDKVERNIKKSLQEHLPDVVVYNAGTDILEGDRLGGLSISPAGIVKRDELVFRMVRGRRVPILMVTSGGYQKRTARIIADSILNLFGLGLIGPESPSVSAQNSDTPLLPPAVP

HDAC11 [6] = target: T5, HDAC11; assay: HDAC11 enzyme activity assay (Myr-H3K9 peptide, HPLC); format: biochemical; set-up: made in house
Experimental: All quantified measurements were performed in triplicates. Data processing was performed using Graphpad Prism 9.5.0. Repeated measures of one-way ANOVA with Fisher’s LSD test were used to determine the P value. The dose–response data was fitted using a two-step nonlinear regression of the Morrison equation. […] HDACs and SIRTs were expressed and purified as previously described.[13] […] For HDAC1, 6, 8, and SIRT1-2, Ac-H3K9 was used as a substrate. […] The reaction was conducted for 15 min (HDAC11), 30 min (HDAC1, 4, 6, 8), and 5 min (SIRT1-2). Then, 20 μL of 0.2% TFA/acetonitrile was added to quench the reaction. The samples were analyzed by HPLC using a Chromolith HighResolution RP-18 end-capped 100 mm × 4.6 mm column (EMD Millipore). Mobile phase A was 0.1% TFA in water and mobile phase B was 0.1% TFA in acetonitrile. The total flow rate was 1 mL/min, and the gradient was 0% B (2 min), 0–60% B (7 min), 100% B (4 min), and 0% B (2 min). The relative ratio of product/substrate in each sample was compared to control sample (no inhibitor) to determine the inhibition level.

HDAC11 [7] = target: T5, HDAC11; assay: HDAC11 in cell assay: defatty acylation of SHMT2 (Alk14 labeling, Western blot); format: cell-based; set-up: endogenous in cells; host or cells: HEK293T; conditions: HEK293T cells, 20 μM, 3 h, 50 μM Alk14
Experimental: We treated HEK293T cells with an alkyne-tagged myristic acid analog, Alk14, along with the inhibitors (TD034, SIS17, or FT895) for 3 h. Click chemistry was performed on cell lysate with Biotin-azide, followed by Streptavidin pulldown. […] HEK293T in a six-well plate at 80% confluency was treated with 50 μM Alk14 and inhibitors at various concentrations. The cells were incubated for 3 h. The cells were harvested and lysed in 200 μL of 4% SDS lysis buffer (50 mM triethanolamine, 150 mM NaCl, 4% SDS, pH 7.4) with a 1:100 protease inhibitor cocktail and 1:1000 nuclease for 15 min. The cell lysates were then diluted with 3.8 mL of HEPES buffer (50 mM HEPES, 150 mM NaCl, 1% NP-40, pH 7.4), and then concentrated using Amicon Ultra-4 (30 kDa cutoff) for 45 min at 4000g. The retained samples were then diluted to 0.5 mL with HEPES buffer, followed by the addition of Biotin-N3 (5 μL, 5 mM in DMF), TBTA (5 μL, 2 mM in DMF), CuSO4 (5 μL, 50 mM in water), and TCEP (5 μL, 50 mM in water). The samples were shaken at 37 °C for 1 h, then diluted with 3 mL of HEPES buffer, and concentrated again using Amicon Ultra-4 (30 kDa cutoff) for 45 min at 4000g. The retained samples were then diluted to 0.5 mL with HEPES buffer, followed by the addition of 20 μg of magnetic streptavidin beads (prewashed with the HEPES buffer). […] The eluants were further analyzed by SDS-PAGE and Western blot for SHMT2.

SMILES: CCCCCCCCCCC[C@H]1O[C@@H]1C(=O)CCCCC[C@@H]1NC(=O)[C@H]2CCCCN2C(=O)[C@H](Cc2ccccc2)NC(=O)[C@H](Cc2ccccc2)NC1=O [TD034]
- IC50 (SIRT2): ~25 µM
- inhibition at 1 µM (SIRT2; read-out: SIRT2, % inhibition): 9%
- inhibition at 10 µM (SIRT2; read-out: SIRT2, % inhibition): 29%
- inhibition at 25 µM (SIRT2; read-out: SIRT2, % inhibition): 54%
- inhibition at 1 µM (HDAC1): 0%
- inhibition at 10 µM (HDAC1): 0%
- inhibition at 25 µM (HDAC1): 0%
- inhibition at 1 µM (HDAC4): 0%
- inhibition at 10 µM (HDAC4): 0%
- inhibition at 25 µM (HDAC4): 0%
- inhibition at 1 µM (HDAC6): 0%
- inhibition at 10 µM (HDAC6): 0%
- inhibition at 25 µM (HDAC6): 0%
- stability in Tris buffer and DTT [1]: relatively stable
- YAP1 mRNA level [2]: not affected
- mRNA levels of YAP1 target genes CTGF and CYR61 [2]: decrease
- inhibition at 1 µM (HDAC8): 0%
- inhibition at 10 µM (HDAC8): 0%
- inhibition at 25 µM (HDAC8): 0%
- level of acetylated α-tubulin (HDAC6 and SIRT2 target) [3]: did not have such an effect
- levels of acetylated histone H3 and acetylated p53 (class I HDACs and SIRT1 target) [3]: did not have such an effect
- inhibition at 1 µM (SIRT1): 0%
- inhibition at 10 µM (SIRT1): 0%
- inhibition at 25 µM (SIRT1): 0%
- YAP1 protein levels [4]: significant reduction
- YAP1 protein level ([4]; wild-type (WT) A549 cells): reduced

SMILES: O=C(CCCCCCC(=O)Nc1ccccc1)NO [SAHA]
- inhibition of HDAC11 demyristoylation activity in vitro (HDAC11 [5]): cannot efficiently inhibit

SMILES: CCCCCCCCCCC[C@@H]1O[C@H]1C(=O)CCCCC[C@@H]1NC(=O)[C@H]2CCCCN2C(=O)[C@H](Cc2ccccc2)NC(=O)[C@H](Cc2ccccc2)NC1=O [TD034-(R)]
- mRNA levels of YAP1 target genes CTGF and CYR61 [2]: did not observe such an effect
- YAP1 protein levels [4]: did not observe such an effect

SMILES: CC(/C=C/C(=O)NO)=C\[C@@H](C)C(=O)c1ccc(N(C)C)cc1 [TSA, trichostatin A, reference compound]
- level of acetylated α-tubulin (HDAC6 and SIRT2 target) [3]: elevated level
- levels of acetylated histone H3 and acetylated p53 (class I HDACs and SIRT1 target) [3]: increased levels

SMILES: CCCCCCCCCCC1(C(=O)CCCCC[C@@H]2NC(=O)[C@H]3CCCCN3C(=O)[C@H](Cc3ccccc3)NC(=O)[C@H](Cc3ccccc3)NC2=O)CO1 (stereo partly shown) [TD036]
- HDAC11 inhibition (in words) (HDAC11 [6]): abolished HDAC11 inhibition

SMILES: CCCCCCCCCCCCCCCCNNC(=O)c1cccs1 [SIS17]
- inhibition of HDAC11 demyristoylation activity in vitro (HDAC11 [5]): low micromolar inhibition
- fatty acylation level of SHMT2 (HDAC11 [7]): same effect
